Measured values published in patent US10407422B2, “Triazolopyridine inhibitors of myeloperoxidase” (priority 2015, dated 2019).

Columns and labels:
myeloperoxidase (MPO) [1] = target: T1, myeloperoxidase (MPO) (Homo sapiens (Human), UniProt P05164); assay: MPO peroxidation assay (Amplex Red assay); format: biochemical; details: potency range class
How it was run: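 IC50 values come from a four-parameter fit of rates taken from the linear 180-540 s portion of a 15 min kinetic read of resorufin (Ex 535/Em 590 nm). Amplex Red (200 μM) plus 10 mM H2O2 was added after a 10 min room-temperature preincubation of inhibitor with 200 pM MPO and 40 nM H2O2 in 100 mM KPi, pH 7.4.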

myeloperoxidase (MPO) [2] = target: T1, myeloperoxidase (MPO); assay: MPO chlorination assay (APF assay); format: biochemical; details: potency range class
How it was run: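 Chlorinating activity followed by APF cleavage to fluorescein (485/535 nm, 3 min kinetic read) after adding APF and 10 μM H2O2. Beforehand, 200 pM enzyme, compound and 120 mM NaCl sat 10 min at room temperature in 100 mM KPi, pH 7.4. Initial-rate slopes gave % inhibition; IC50 by Hill-slope fit.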

T1 sequence (P05164 49-745): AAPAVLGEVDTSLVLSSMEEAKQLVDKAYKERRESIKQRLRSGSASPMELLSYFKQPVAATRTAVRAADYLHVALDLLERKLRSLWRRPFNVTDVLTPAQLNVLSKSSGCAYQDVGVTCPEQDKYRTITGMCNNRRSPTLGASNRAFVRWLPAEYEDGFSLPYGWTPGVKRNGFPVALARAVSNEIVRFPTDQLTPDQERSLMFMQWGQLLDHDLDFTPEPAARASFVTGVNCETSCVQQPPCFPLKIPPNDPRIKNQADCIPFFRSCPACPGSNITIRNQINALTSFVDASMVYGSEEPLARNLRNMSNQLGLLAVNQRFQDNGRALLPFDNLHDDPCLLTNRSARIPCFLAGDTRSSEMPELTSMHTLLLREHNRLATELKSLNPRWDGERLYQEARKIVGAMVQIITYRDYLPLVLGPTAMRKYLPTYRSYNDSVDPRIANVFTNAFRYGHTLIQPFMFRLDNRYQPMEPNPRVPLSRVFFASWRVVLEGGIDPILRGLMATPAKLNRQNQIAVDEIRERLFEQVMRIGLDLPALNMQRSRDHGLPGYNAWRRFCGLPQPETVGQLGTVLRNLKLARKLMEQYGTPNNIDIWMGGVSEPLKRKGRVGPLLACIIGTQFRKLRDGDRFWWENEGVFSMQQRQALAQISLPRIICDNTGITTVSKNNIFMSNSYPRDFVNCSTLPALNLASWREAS

Row | SMILES | IC50 (myeloperoxidase (MPO) [1]) | IC50 (myeloperoxidase (MPO) [2])
1 | Nc1cc(Cc2cnn(Cc3cn(Cc4ccccc4)nn3)c2)c2nn[nH]c2n1 [Example 107, 7-((1-((1-Benzyl-1H-1,2,3-triazol-4-yl)methyl)-1H-pyrazol-4-yl)methyl)-3H-[1,2,3]triazolo[4,5-b]pyridin-5-amine] | 0.001 to 0.1 µM | 0.101 to 0.999 µM
2 | Nc1cc(Cc2cnn(Cc3ccc(CN4CCOCC4)cc3)c2)c2nn[nH]c2n1 [Example 108, 7-((1-(4-(Morpholinomethyl)benzyl)-1H-pyrazol-4-yl)methyl)-3H-[1,2,3]triazolo[4,5-b]pyridin-5-amine] | 0.001 to 0.1 µM | 0.101 to 0.999 µM
3 | Nc1cc(Cc2cnn(Cc3ccc(Cn4cccn4)cc3)c2)c2nn[nH]c2n1 [Example 109, 7-((1-(4-((1H-Pyrazol-1-yl)methyl)benzyl)-1H-pyrazol-4-yl)methyl)-3H-[1,2,3]triazolo[4,5-b]pyridin-5-amine] | 0.001 to 0.1 µM | 0.101 to 0.999 µM
4 | Nc1cc(Cc2cnn(Cc3ccc(Cn4ccnc4)cc3)c2)c2nn[nH]c2n1 [Example 110, 7-((1-(4-((1H-Imidazol-1-yl)methyl)benzyl)-1H-pyrazol-4-yl)methyl)-3H-[1,2,3]triazolo[4,5-b]pyridin-5-amine] | 0.001 to 0.1 µM | 0.001 to 0.1 µM
5 | Nc1cc(Cc2cnn(Cc3ccc(N4CCOCC4)cc3)c2)c2nn[nH]c2n1 [Example 111, 7-((1-(4-Morpholinobenzyl)-1H-pyrazol-4-yl)methyl)-3H-[1,2,3]triazolo[4,5-b]pyridin-5-amine] | 1 to 10 µM | 0.101 to 0.999 µM
6 | CN1CCN(c2ccc(Cn3cc(Cc4cc(N)nc5[nH]nnc45)cn3)cc2)CC1 [Example 112, 7-((1-(4-(4-Methylpiperazin-1-yl)benzyl)-1H-pyrazol-4-yl)methyl)-3H-[1,2,3]triazolo[4,5-b]pyridin-5-amine] | 0.001 to 0.1 µM | 0.101 to 0.999 µM
7 | CC(C)(C)c1ccc(Cn2cc(Cc3cc(N)nc4[nH]nnc34)cn2)cc1 [Example 113, 7-((1-(4-(tert-Butyl)benzyl)-1H-pyrazol-4-yl)methyl)-3H-[1,2,3]triazolo[4,5-b]pyridin-5-amine] | 0.001 to 0.1 µM | 0.101 to 0.999 µM
8 | Cc1nn(-c2ccccc2)nc1Cn1cc(Cc2cc(N)nc3[nH]nnc23)cn1 [Example 114, 7-((1-((5-Methyl-2-phenyl-2H-1,2,3-triazol-4-yl)methyl)-1H-pyrazol-4-yl)methyl)-3H-[1,2,3]triazolo[4,5-b]pyridin-5-amine] | 0.001 to 0.1 µM | 0.101 to 0.999 µM
9 | Nc1cc(Cc2cnn(Cc3cnn(-c4ccccn4)c3)c2)c2nn[nH]c2n1 [Example 115, 7-((1-((1-(Pyridin-2-yl)-1H-pyrazol-4-yl)methyl)-1H-pyrazol-4-yl)methyl)-3H-[1,2,3]triazolo[4,5-b]pyridin-5-amine] | 0.001 to 0.1 µM | 0.101 to 0.999 µM
10 | Nc1cc(Cc2cnn(Cc3cn(-c4ccccc4)nn3)c2)c2nn[nH]c2n1 [Example 116, 7-((1-((1-Phenyl-1H-1,2,3-triazol-4-yl)methyl)-1H-pyrazol-4-yl)methyl)-3H-[1,2,3]triazolo[4,5-b]pyridin-5-amine] | 0.001 to 0.1 µM | 0.101 to 0.999 µM
11 | Nc1cc(Cc2cnn(Cc3ccc(Cl)cc3Cl)c2)c2nn[nH]c2n1 [Example 117, 7-((1-(2,4-Dichlorobenzyl)-1H-pyrazol-4-yl)methyl)-3H-[1,2,3]triazolo[4,5-b]pyridin-5-amine] | 0.001 to 0.1 µM | 0.101 to 0.999 µM
12 | Nc1cc(Cc2cnn(CC3Cc4ccccc4C3)c2)c2nn[nH]c2n1 [Example 118, 7-((1-((2,3-Dihydro-1H-inden-2-yl)methyl)-1H-pyrazol-4-yl)methyl)-3H-[1,2,3]triazolo[4,5-b]pyridin-5-amine] | 0.001 to 0.1 µM | 0.001 to 0.1 µM
13 | Cc1nc(-c2ccc(Cl)cc2)sc1Cn1cc(Cc2cc(N)nc3[nH]nnc23)cn1 [Example 119, 7-((1-((2-(4-Chlorophenyl)-4-methylthiazol-5-yl)methyl)-1H-pyrazol-4-yl)methyl)-3H-[1,2,3]triazolo[4,5-b]pyridin-5-amine] | 0.001 to 0.1 µM | 0.101 to 0.999 µM
14 | Nc1cc(Cc2cnn(Cc3nc(-c4ccccc4)no3)c2)c2nn[nH]c2n1 [Example 120, 7-((1-((3-Phenyl-1,2,4-oxadiazol-5-yl)methyl)-1H-pyrazol-4-yl)methyl)-3H-[1,2,3]triazolo[4,5-b]pyridin-5-amine] | 0.001 to 0.1 µM | 0.101 to 0.999 µM
15 | Nc1cc(Cc2cnn(Cc3cc(-c4ccccc4)on3)c2)c2nn[nH]c2n1 [Example 121, 7-((1-((5-Phenylisoxazol-3-yl)methyl)-1H-pyrazol-4-yl)methyl)-3H-[1,2,3]triazolo[4,5-b]pyridin-5-amine] | 0.001 to 0.1 µM | 0.101 to 0.999 µM

Other lines, results leading:

Row | IC50 (myeloperoxidase (MPO) [1]) | IC50 (myeloperoxidase (MPO) [2]) | SMILES
16 | 0.001 to 0.1 µM | 0.101 to 0.999 µM | CS(=O)(=O)c1cccc(Cn2cc(Cc3cc(N)nc4[nH]nnc34)cn2)c1 [Example 122, 7-((1-(3-(Methylsulfonyl)benzyl)-1H-pyrazol-4-yl)methyl)-3H-[1,2,3]triazolo[4,5-b]pyridin-5-amine]
17 | 0.001 to 0.1 µM | 0.001 to 0.1 µM | Nc1cc(Cc2cnn(Cc3cccc(-c4ccccc4)n3)c2)c2nn[nH]c2n1 [Example 123, 7-((1-((6-Phenylpyridin-2-yl)methyl)-1H-pyrazol-4-yl)methyl)-3H-[1,2,3]triazolo[4,5-b]pyridin-5-amine]
18 | 0.001 to 0.1 µM | 0.001 to 0.1 µM | Nc1cc(Cc2cnn(Cc3cccc(-c4cccnc4)c3)c2)c2nn[nH]c2n1 [Example 124, 7-((1-(3-(Pyridin-3-yl)benzyl)-1H-pyrazol-4-yl)methyl)-3H-[1,2,3]triazolo[4,5-b]pyridin-5-amine]
19 | 0.001 to 0.1 µM | 0.001 to 0.1 µM | Nc1cc(Cc2cnn(Cc3cncc(-c4ccccc4)c3)c2)c2nn[nH]c2n1 [Example 125, 7-((1-((5-Phenylpyridin-3-yl)methyl)-1H-pyrazol-4-yl)methyl)-3H-[1,2,3]triazolo[4,5-b]pyridin-5-amine]
20 | 0.001 to 0.1 µM | 0.101 to 0.999 µM | Nc1cccc(Cn2cc(Cc3cc(N)nc4[nH]nnc34)cn2)c1 [Example 126, 7-((1-(3-Aminobenzyl)-1H-pyrazol-4-yl)methyl)-3H-[1,2,3]triazolo[4,5-b]pyridin-5-amine]
21 | 0.101 to 0.999 µM | 0.101 to 0.999 µM | Nc1cc(Cc2cnn(Cc3ccc4cnccc4c3)c2)c2nn[nH]c2n1 [Example 127, 7-((1-(Isoquinolin-6-ylmethyl)-1H-pyrazol-4-yl)methyl)-3H-[1,2,3]triazolo[4,5-b]pyridin-5-amine]
22 | 0.001 to 0.1 µM | 0.101 to 0.999 µM | Nc1cc(Cc2cnn(Cc3ccc4ncccc4c3)c2)c2nn[nH]c2n1 [Example 128, 7-((1-(Quinolin-6-ylmethyl)-1H-pyrazol-4-yl)methyl)-3H-[1,2,3]triazolo[4,5-b]pyridin-5-amine]
23 | 0.101 to 0.999 µM | 1 to 10 µM | CC(C)(C)OC(=O)N1CCc2cc(Cn3cc(Cc4cc(N)nc5[nH]nnc45)cn3)ccc2C1 [Example 129, tert-Butyl 6-((4-((5-amino-3H-[1,2,3]triazolo[4,5-b]pyridin-7-yl)methyl)-1H-pyrazol-1-yl)methyl)-3,4-dihydroisoquinoline-2(1H)-carboxylate]
24 | 0.101 to 0.999 µM | 0.101 to 0.999 µM | Nc1cc(Cc2cnn(Cc3ccc4c(c3)CCN(C(=O)c3ncc[nH]3)C4)c2)c2nn[nH]c2n1 [Example 131, (6-((4-((5-Amino-3H-[1,2,3]triazolo[4,5-b]pyridin-7-yl)methyl)-1H-pyrazol-1-yl)methyl)-3,4-dihydroisoquinolin-2(1H)-yl)(1H-imidazol-2-yl)methanone]
